Assay results: paper PMC11277991, “Tunicamycins from Marine-Derived Streptomyces bacillaris Inhibit MurNAc-Pentapeptide Translocase in Staphylococcus aureus” (Marine Drugs, 2024)

Target: T1, MurNAc-pentapeptide translocase (MraY) (Staphylococcus aureus, UniProt Q2FZ93)
T1 construct: recombinant His6-tagged MraY from S. aureus ATCC6538p (ca. 36 kDa), expressed in E. coli BL21(DE3)
Assay: UMP-Glo luminescence glycosyltransferase assay with purified MraY
Format: biochemical

T1 sequence (Q2FZ93 whole entry): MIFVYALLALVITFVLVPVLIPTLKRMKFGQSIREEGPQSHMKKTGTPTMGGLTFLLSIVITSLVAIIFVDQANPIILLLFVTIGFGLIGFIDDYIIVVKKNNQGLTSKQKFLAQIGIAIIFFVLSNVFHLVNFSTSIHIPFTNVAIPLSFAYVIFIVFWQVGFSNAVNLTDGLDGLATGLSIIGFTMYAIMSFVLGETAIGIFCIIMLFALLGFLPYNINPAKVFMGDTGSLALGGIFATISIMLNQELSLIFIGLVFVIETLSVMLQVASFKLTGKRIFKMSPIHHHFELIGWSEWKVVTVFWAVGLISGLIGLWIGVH

| SMILES | IC50 |
| --- | --- |
| CC(=O)N[C@H]1[C@@H](O[C@@H]2O[C@H](C[C@@H](O)[C@H]3O[C@@H](n4ccc(=O)[nH]c4=O)[C@H](O)[C@@H]3O)[C@H](O)[C@H](O)[C@H]2NC(=O)/C=C/CCCCCCCCCCC(C)C)O[C@H](CO)[C@@H](O)[C@@H]1O [compound 1, tunicamycin VII] | 0.142 µM |
| CCCCCCCCCCCCC/C=C/C(=O)N[C@H]1[C@H](O[C@H]2O[C@H](CO)[C@@H](O)[C@H](O)[C@H]2NC(C)=O)O[C@H](C[C@@H](O)[C@H]2O[C@@H](n3ccc(=O)[nH]c3=O)[C@H](O)[C@@H]2O)[C@H](O)[C@@H]1O [compound 2, tunicamycin VIII] | 0.154 µM |
| CCC(C)CCCCCCCCCC/C=C/C(=O)N[C@H]1[C@H](O[C@H]2O[C@H](CO)[C@@H](O)[C@H](O)[C@H]2NC(C)=O)O[C@H](C[C@@H](O)[C@H]2O[C@@H](n3ccc(=O)[nH]c3=O)[C@H](O)[C@@H]2O)[C@H](O)[C@@H]1O (stereo partly shown) [compound 3, corynetoxin U17a] | 0.0931 µM |
| CCCCCCCCCCCCCC/C=C/C(=O)N[C@H]1[C@H](O[C@H]2O[C@H](CO)[C@@H](O)[C@H](O)[C@H]2NC(C)=O)O[C@H](C[C@@H](O)[C@H]2O[C@@H](n3ccc(=O)[nH]c3=O)[C@H](O)[C@@H]2O)[C@H](O)[C@@H]1O [compound 4, tunicamycin IX] | 0.244 µM |
